Assays:
Format in all cases: in vivo
[1] = test system: PLCβ4 knock-out mouse; assay: SWD reduction by ethosuximide, EEG measurement; settings: 200 mg/kg intraperitoneal, EEG recorded 1 hour, starting 30 minutes after injection, compared with NaCl control
[2] = test system: PLCβ4 knock-out mouse; assay: Change of SWD after injection of PKC agonist or calcium channel blocker into the thalamus relay nuclei, EEG measurement
[3] = test system: PLCβ4 knock-out mouse; assay: Sensitivity to absence seizure inducing agents (GABAB receptor agonists), EEG measurement; settings: PLCβ4 knock-out mouse compared with normal mouse
[4] = 10 pmol injected into thalamus relay nuclei, compared with before / 0.9% NaCl

CCC1(C)CC(=O)NC1=O (centres unmarked) [ethosuximide]
SWD (spike-and-wave discharge) in EEG [1]: significantly reduced

CCCCCCCCCCCCCC(=O)O[C@@H]1[C@@H](C)[C@@]2(O)[C@@H](C=C(CO)C[C@]3(O)C(=O)C(C)=C[C@@H]23)[C@@H]2C(C)(C)[C@]12OC(C)=O [PMA, phorbol 12-myristate 13-acetate]
SWD (hourly number) in EEG [2, 4]: significantly reduced | SWD (hourly number) in EEG ([2]; 10 pmol injected into thalamus relay nuclei, compared with before / 0.9% NaCl, listed as phorbol 12-myristate 13-acetate): reduced

COCC(=O)O[C@]1(CCN(C)CCCc2nc3ccccc3[nH]2)CCc2cc(F)ccc2[C@@H]1C(C)C [mibefradil]
SWD (hourly number) in EEG ([2]; 1 nmol injected into thalamus relay nuclei): significantly reduced

CCCCCCCCCC(=O)O[C@@H]1[C@@H](C)[C@@]2(O)[C@@H](C=C(CO)C[C@]3(O)C(=O)C(C)=C[C@@H]23)[C@@H]2C(C)(C)[C@]12OC(=O)CCCCCCCCC [PDD, phorbol 12,13-didecanoate]
SWD (hourly number) in EEG [2, 4]: significantly reduced | SWD (hourly number) in EEG ([2]; 10 pmol injected into thalamus relay nuclei, compared with before / 0.9% NaCl, listed as phorbol 12,13-didecanoate): reduced

O=C1CCCO1 [γ-butyrolactone]
absence seizure specific SWD ([3]; after absence seizure inducing drug): increased | duration of paroxysmal SWD after drug administration ([3]; intraperitoneal, γ-butyrolactone 40 or 70 mg/kg, RS(+/−)-baclofen 20 mg/kg): continued even longer

— US8313744B2, “Composition for the prevention and treatment of absence seizures comprising PKC agonist as an effective ingredient” (Korea Institute of Science and Technology, priority 2010, dated 2012)
